Patent US20260097047A1, “Small molecule inhibitors of the ribosome biogenesis factor NVL2” (Board of Regents, The University of Texas System, priority 2023, published 2026)
Values joined by “and” are separate entries in the source; they are usually repeats but may differ in a detail not shown here. Equal entries are not always repeated.

What was measured:
[1] = Pharmacokinetic studies in CD-1 female mice, intraperitoneal; assay type: in vivo, mouse
Protocol: Plasma exposure was dose-dependent up to 35 mg/kg (IP injection) reaching a maximum concentration at 17.86 μM. These levels exceed the anti-proliferative IC99 of MM927 in cells expressing either human or mouse NVL. In a subsequent pharmacodynamic (PD) study, we asked if we could assess on-target NVL inhibition via a subsequent p53 and/or p21 induction in tumor xenografts in mice treated with MM927. We implanted HCT116 NVL^WT and NVL^R403W cells subcutaneously on either flank of the mice and evaluated the levels of p53 and p21 in either tumor at various time points after IP administration of 35 mg/kg of MM927.
Pharmacokinetic studies were performed by dosing 6-7 week old CD-1 female mice with analog MM927 formulated as 10% DMSO/10% Kolliphor EL/10% Solutal/70% D5W via the intraperitoneal route. Animals were euthanized in groups of three, blood was obtained by cheek bleeds at each time point (0, 10, 30, 90, 180, 360, 960 and 1440 minutes post dose) using the anticoagulant ACD (acidified citrate dextrose) and plasma isolated by centrifugation. For the dose escalation study, mice were dosed with 20 mg/kg, 35 mg/kg, or 60 mg/kg and blood was collected at 10, 180, and 720 minutes post dose. […] The resulting supernatants were evaluated by LC-MS/MS using a Sciex (Framingham, MA) 4500 Triple Quad coupled to a Shimadzu (Columbia, MD) Prominence LC. Briefly, MM927 was detected in multiple reaction monitoring mode (MRM) using the (m+1) transition 488.059/176.1. […] The concentrations of drug in each time-point sample were quantified using Analyst software (Sciex). […] The limit of quantitation (LOQ) was defined as the lowest concentration at which back calculation yielded a concentration within 20% of theoretical and which was above the LOD. Cmax and AUC values were calculated using the noncompartmental analysis tool of Phoenix WinNonLin (Certara/Pharsight, Sunnyvale, CA).

[2] = tested on: p53 KO and p21 KO HCT116 cells; test: Growth competition of p53 or p21 knockout versus control HCT116 cells; assay type: cell-based, human
Excerpt: To better understand how inhibition of NVL by MM017 leads to cell death, we performed a genome wide pooled CRISPR/Cas9 knockout screen in HCT116 cells using a library of guide RNAs targeting 19,114 genes. Cells were pulsed intermittently with vehicle or MM017 over 21 days, at which point MM017 treated cells had undergone 9.79 fewer population doublings. Massively parallel sequencing of PCR products amplified from genomic DNA was used to determine relative levels of sgRNA sequences to infer the relative impact of each gene on compound sensitivity. […] To confirm whether p53 and p21 are required for the anti-proliferative activity of MM017, we performed a growth competition experiment between cells expressing ZsGreen with either p53 or p21 knockout (KO) and control cells expressing mCherry. Without treatment, the ratio between green and red cells was unchanged over time.

Row | SMILES | maximum plasma concentration ([1]; 35 mg/kg IP injection, dose escalation) [µM] | half-life ([1]; female, CD-1, mouse, plasma, 10 mg/kg intraperitoneal (IP) injection, read-out: elimination half-life) [h] | Cmax ([1]; female, CD-1, mouse, plasma, 10 mg/kg intraperitoneal (IP) injection, read-out: peak plasma levels (Cmax)) | enrichment of p53 or p21 KO cells in growth competition [2]
1 | CC#CCN1C(=O)c2ccc(F)cc2Sc2cc(NC(=O)c3ccc4oc(=O)n(C)c4c3)ccc21 [MM927, N-(10-(But-2-yn-1-yl)-3-fluoro-11-oxo-10,11-dihydrodibenzo[b,f][1,4]thiazepin-7-yl)-3-methyl-2-oxo-2,3-dihydrobenzo[d]oxazole-5-carboxamide] | 17.86 | 1.69 | 2510 ng/mL and 5.15 µM | –
2 | COCCN1C(=O)c2ccccc2Sc2cc(NC(=O)c3ccoc3)ccc21 [MM017] | – | – | – | dose-dependent enrichment of either p53 or p21 KO cells
